According to patent US4181797A, “1-N-(ω-amino-α-hydroxyalkanoyl) derivatives of 4'-deoxy-6'-N-methylkanamycin A” (Bristol-Myers Company, priority 1978, dated 1980):
Values after ≈ are worked out from the molar mass of the structure shown. Read-outs that look alike come from different tables or passages of the source.

Tests used:
[1] = system: AAC(6')-producing and ANT(4')-producing strains; test: Average activity relative to amikacin, Table 2 strains; format: cell-based; details: AAC(6')-producing and ANT(4')-producing strains of Table 2
Description: (§1) The Minimum Inhibitory Concentrations (MIC's) of BB-K311, amikacin and kanamycin A were determined in Mueller-Hinton agar against a number of kanamycin-sensitive and kanamycin-resistant strains of organisms.

[2] = system: aminoglycoside-sensitive and aminoglycoside-resistant strains; test: Antibacterial spectrum, Table 1 strains; format: cell-based; details: strains of Table 1, compared with amikacin
Description: as §1

[3] = system: S. aureus Smith; test: MIC in Mueller-Hinton agar, kanamycin-sensitive strain; format: cell-based; details: Staphylococcus aureus
Description: as §1

[4] = system: P. mirabilis A9900; test: as above; format: cell-based; details: Proteus mirabilis
Description: as §1

[5] = system: B. brevis ATCC8185; test: as above; format: cell-based; details: Brevibacillus brevis
Description: as §1

[6] = system: P. vulgaris A9526; test: as above; format: cell-based; details: Proteus vulgaris
Description: as §1

[7] = system: E. cloacae A20464; test: as above; format: cell-based; details: Enterobacter cloacae
Description: as §1

[8] = system: K. pneumoniae A15130; test: as above; format: cell-based; details: Klebsiella pneumoniae
Description: as §1

[9] = system: P. Morganii A20031; test: as above; format: cell-based; details: Morganella morganii
Description: as §1

[10] = system: P. stuartii A20615; test: as above; format: cell-based; details: Providencia stuartii
Description: as §1

[11] = system: E. coli A9632; test: as above; format: cell-based; details: Escherichia coli
Description: as §1

[12] = system: S. marcescens A20019; test: as above; format: cell-based; details: Serratia marcescens
Description: as §1

[13] = system: S. marcescens A21226; test: MIC in Mueller-Hinton agar, AAC(6')-producing strain; format: cell-based; details: Serratia marcescens
Description: as §1

[14] = system: S. marcescens A22382; test: as above; format: cell-based; details: Serratia marcescens
Description: as §1

[15] = system: S. marcescens A21235; test: as above; format: cell-based; details: Serratia marcescens
Description: as §1

[16] = system: S. aureus A22421; test: as above; format: cell-based; details: Staphylococcus aureus
Description: as §1

[17] = system: P. rettgeri HM-56; test: as above; format: cell-based; details: Providencia rettgeri, HM56
Description: as §1

[18] = system: E. coli A2128; test: as above; format: cell-based; details: Escherichia coli
Description: as §1

[19] = system: S. aureus A22153; test: as above; format: cell-based; details: Staphylococcus aureus
Description: as §1

[20] = system: P. aeruginosa GN315; test: as above; format: cell-based; details: Pseudomonas aeruginosa
Description: as §1

[21] = system: E. cloacae HM-43; test: as above; format: cell-based; details: Enterobacter cloacae, HM43
Description: as §1

[22] = system: S. epidermidis A22152; test: as above; format: cell-based; details: Staphylococcus epidermidis
Description: as §1

[23] = system: S. epidermidis A22211; test: as above; format: cell-based; details: Staphylococcus epidermidis
Description: as §1

[24] = system: S. marcescens A22288; test: as above; format: cell-based; details: Serratia marcescens
Description: as §1

[25] = system: P. aeruginosa GN4925; test: as above; format: cell-based; details: Pseudomonas aeruginosa
Description: as §1

[26] = system: E. cloacae A21006; test: MIC in Mueller-Hinton agar, APH(3')-II producer; format: cell-based; details: Enterobacter cloacae
Description: as §1

[27] = system: E. coli A20107; test: MIC in Mueller-Hinton agar, APH(3')-II producer; format: cell-based; details: Escherichia coli
Description: as §1

[28] = system: E. coli A20732; test: MIC in Mueller-Hinton agar, ANT(2") producer; format: cell-based; details: Escherichia coli
Description: as §1

[29] = system: S. aureus A22054; test: MIC in Mueller-Hinton agar, ANT(4')-producing strain; format: cell-based; details: Staphylococcus aureus
Description: as §1

[30] = system: B. brevis IFO 12334; test: as above; format: cell-based; details: Brevibacillus brevis, IFO12334
Description: as §1

[31] = system: S. epidermidis A22033; test: as above; format: cell-based; details: Staphylococcus epidermidis
Description: as §1

[32] = system: E. cloacae A20364; test: MIC in Mueller-Hinton agar, APH(3')-I producer; format: cell-based; details: Enterobacter cloacae
Description: as §1

[33] = system: E. coli A20363; test: MIC in Mueller-Hinton agar, APH(3')-I producer; format: cell-based; details: Escherichia coli
Description: as §1

[34] = system: E. coli A20895; test: MIC in Mueller-Hinton agar, AAC(3)-I producer; format: cell-based; details: Escherichia coli
Description: as §1

[35] = system: strains which phosphorylate the 3'-hydroxy group; details: background statement; cited from earlier work
[36] = system: resistant strains which contain 6'-N-acetylating enzymes; details: background statement; cited from earlier work

## CNC[C@@H]1C[C@H](O)[C@@H](O)[C@@H](O[C@H]2[C@H](O)[C@@H](O[C@H]3O[C@H](CO)[C@@H](O)[C@H](N)[C@H]3O)[C@H](NC(=O)[C@@H](O)CCN)C[C@@H]2N)O1 [BB-K311, 1-N-[L-(-)-γ-amino-α-hydroxybutyryl]-4'-deoxy-6'-N-methylkanamycin A]
[1]
  activity relative to amikacin, on the average: twice as active as amikacin
[2]
  antibacterial spectrum: antibacterial spectrum similar to amikacin
[3]; S. aureus Smith, enzyme produced: none, Mueller-Hinton agar, read-out: MIC
  MIC: 1.6 µg/mL (≈ 2.74 µM)
[4]; P. mirabilis A9900, enzyme produced: none, Mueller-Hinton agar, read-out: MIC
  MIC: 6.3 µg/mL (≈ 10.8 µM)
[5]; B. brevis ATCC8185, enzyme produced: none, Mueller-Hinton agar, read-out: MIC
  MIC: 1.6 µg/mL (≈ 2.74 µM)
[6]; P. vulgaris A9526, enzyme produced: none, Mueller-Hinton agar, read-out: MIC
  MIC: 0.8 µg/mL (≈ 1.37 µM)
[7]; E. cloacae A20464, enzyme produced: none, Mueller-Hinton agar, read-out: MIC
  MIC: 3.1 µg/mL (≈ 5.31 µM)
[8]; K. pneumoniae A15130, enzyme produced: none, Mueller-Hinton agar, read-out: MIC
  MIC: 1.6 µg/mL (≈ 2.74 µM)
[9]; P. Morganii A20031, enzyme produced: none, Mueller-Hinton agar, read-out: MIC
  MIC: 6.3 µg/mL (≈ 10.8 µM)
[10]; P. stuartii A20615, enzyme produced: none, Mueller-Hinton agar, read-out: MIC
  MIC: 3.1 µg/mL (≈ 5.31 µM)
[11]; E. coli A9632, enzyme produced: none, Mueller-Hinton agar, read-out: MIC
  MIC: 1.6 µg/mL (≈ 2.74 µM)
[12]; S. marcescens A20019, enzyme produced: none, Mueller-Hinton agar, read-out: MIC
  MIC: 1.6 µg/mL (≈ 2.74 µM)
[13]; S. marcescens A21226, AAC(6')-producing, Mueller-Hinton agar, read-out: MIC
  MIC: 3.1 µg/mL (≈ 5.31 µM)
[14]; S. marcescens A22382, AAC(6')-producing, Mueller-Hinton agar, read-out: MIC
  MIC: 6.3 µg/mL (≈ 10.8 µM)
[15]; S. marcescens A21235, AAC(6')-producing, Mueller-Hinton agar, read-out: MIC
  MIC: 12.5 µg/mL (≈ 21.4 µM)
[16]; S. aureus A22421, AAC(6')-producing, Mueller-Hinton agar, read-out: MIC
  MIC: 12.5 µg/mL (≈ 21.4 µM)
[17]; P. rettgeri HM-56, AAC(6')-producing, Mueller-Hinton agar, read-out: MIC
  MIC: 12.5 µg/mL (≈ 21.4 µM)
[18]; E. coli A2128, AAC(6')-producing, Mueller-Hinton agar, read-out: MIC
  MIC: 3.1 µg/mL (≈ 5.31 µM)
[19]; S. aureus A22153, AAC(6')-producing, Mueller-Hinton agar, read-out: MIC
  MIC: 12.5 µg/mL (≈ 21.4 µM)
[20]; P. aeruginosa GN315, AAC(6')-producing, Mueller-Hinton agar, read-out: MIC
  MIC: 25 µg/mL (≈ 42.8 µM)
[21]; E. cloacae HM-43, AAC(6')-producing, Mueller-Hinton agar, read-out: MIC
  MIC: 3.1 µg/mL (≈ 5.31 µM)
[22]; S. epidermidis A22152, AAC(6')-producing, Mueller-Hinton agar, read-out: MIC
  MIC: 3.1 µg/mL (≈ 5.31 µM)
[23]; S. epidermidis A22211, AAC(6')-producing, Mueller-Hinton agar, read-out: MIC
  MIC: 12.5 µg/mL (≈ 21.4 µM)
[24]; S. marcescens A22288, AAC(6')-producing, Mueller-Hinton agar, read-out: MIC
  MIC: 3.1 µg/mL (≈ 5.31 µM)
[25]; P. aeruginosa GN4925, AAC(6')-producing, Mueller-Hinton agar, read-out: MIC
  MIC: 12.5 µg/mL (≈ 21.4 µM)
[26]; E. cloacae A21006, enzyme produced: APH(3')-II, Mueller-Hinton agar, read-out: MIC
  MIC: 3.1 µg/mL (≈ 5.31 µM)
[27]; E. coli A20107, enzyme produced: APH(3')-II, Mueller-Hinton agar, read-out: MIC
  MIC: 6.3 µg/mL (≈ 10.8 µM)
[28]; E. coli A20732, enzyme produced: ANT(2"), Mueller-Hinton agar, read-out: MIC
  MIC: 1.6 µg/mL (≈ 2.74 µM)
[29]; S. aureus A22054, ANT(4')-producing, Mueller-Hinton agar, read-out: MIC
  MIC: 3.1 µg/mL (≈ 5.31 µM)
[30]; B. brevis IFO 12334, ANT(4')-producing, Mueller-Hinton agar, read-out: MIC
  MIC: 3.1 µg/mL (≈ 5.31 µM)
[31]; S. epidermidis A22033, ANT(4')-producing, Mueller-Hinton agar, read-out: MIC
  MIC: 1.6 µg/mL (≈ 2.74 µM)
[32]; E. cloacae A20364, enzyme produced: APH(3')-I, Mueller-Hinton agar, read-out: MIC
  MIC: 6.3 µg/mL (≈ 10.8 µM)
[33]; E. coli A20363, enzyme produced: APH(3')-I, Mueller-Hinton agar, read-out: MIC
  MIC: 3.1 µg/mL (≈ 5.31 µM)
[34]; E. coli A20895, enzyme produced: AAC(3)-I, Mueller-Hinton agar, read-out: MIC
  MIC: 3.1 µg/mL (≈ 5.31 µM)

## NCC1OC(OC2C(N)CC(N)C(OC3OC(CO)C(O)C(N)C3O)C2O)C(O)CC1O (stereo not drawn) [3'-deoxykanamycin]
[35]
  activity against 3'-hydroxy phosphorylating strains: active against strains which phosphorylate the 3'-hydroxy group
[36]
  activity against strains with 6'-N-acetylating enzymes: inactivated by other resistant strains

## NC[C@H]1O[C@H](O[C@H]2[C@H](O)[C@@H](O[C@H]3O[C@H](CO)[C@@H](O)[C@H](N)[C@H]3O)[C@H](N)C[C@@H]2N)[C@H](O)[C@@H](O)[C@@H]1O [Kanamycin A, kanamycin A]
[3]
  MIC: 0.8 µg/mL (≈ 1.65 µM)
[4]; A9900
  MIC: 1.6 µg/mL (≈ 3.3 µM)
[5]; ATCC8185
  MIC: 1.6 µg/mL (≈ 3.3 µM)
[6]; A9526
  MIC: 0.8 µg/mL (≈ 1.65 µM)
[7]; A20464
  MIC: 6.3 µg/mL (≈ 13 µM)
[8]; A15130
  MIC: 1.6 µg/mL (≈ 3.3 µM)
[9]
  MIC: 3.1 µg/mL (≈ 6.4 µM)
[10]; A20615
  MIC: 1.6 µg/mL (≈ 3.3 µM)
[11]; A9632
  MIC: 1.6 µg/mL (≈ 3.3 µM)
[12]; A20019
  MIC: 1.6 µg/mL (≈ 3.3 µM)
[35]
  activity against 3'-hydroxy phosphorylating strains: certain strains of Gram-negative bacteria are resistant to kanamycin A
[13]; A21226
  MIC: 12.5 µg/mL (≈ 25.8 µM)
[14]; A22382
  MIC: 25 µg/mL (≈ 51.6 µM)
[15]; A21235
  MIC: 50 µg/mL (≈ 103 µM)
[16]; A22421
  MIC: > 100 µg/mL
[17]
  MIC: > 100 µg/mL
[18]; A2128
  MIC: 100 µg/mL (≈ 206 µM)
[19]; A22153
  MIC: > 100 µg/mL
[20]; GN315
  MIC: > 100 µg/mL
[21]
  MIC: > 100 µg/mL
[22]; A22152
  MIC: > 100 µg/mL
[23]; A22211
  MIC: > 100 µg/mL
[24]; A22288
  MIC: > 100 µg/mL
[25]; GN4925
  MIC: 100 µg/mL (≈ 206 µM)
[26]; A21006
  MIC: 100 µg/mL (≈ 206 µM)
[27]; A20107
  MIC: 100 µg/mL (≈ 206 µM)
[28]; A20732
  MIC: 25 µg/mL (≈ 51.6 µM)
[29]; A22054
  MIC: > 100 µg/mL
[30]
  MIC: > 100 µg/mL
[31]; A22033
  MIC: 50 µg/mL (≈ 103 µM)
[32]; A20364
  MIC: 100 µg/mL (≈ 206 µM)
[33]; A20363
  MIC: 100 µg/mL (≈ 206 µM)
[34]; A20895
  MIC: 1.6 µg/mL (≈ 3.3 µM)
